Legend:
Assay type in all cases: cell-based
SK-BR-3 (breast cancer) = experiment: In vitro cytotoxicity of camptothecin analogues (CellTiter-Glo); conditions: Homo sapiens, SK-BR-3, 96 h; 4 d incubation; read-out: pIC50 SKBR-3 (converted)
Summary of the method: (§1)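 Cells seeded at 20,000 cells/mL (ZR-75-1 at 10,000 cells/mL) with serially diluted compounds in RPMI 1640 + 10% FBS and incubated 4 d at 37 °C (ZR-75-1 5 d). Growth inhibition was read by CellTiter-Glo luminescence and IC50 fitted.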

ZR-75-1 (breast cancer) = experiment: as above; conditions: Homo sapiens, ZR-75-1, 120 h; 5 d incubation; read-out: pIC50 ZR-75 (converted)
Summary of the method: as §1

[1] = system: MDA-MB-468 (breast cancer); experiment: as above; conditions: Homo sapiens, MDA-MB-468, 96 h; 4 d incubation; read-out: pIC50 MDA-MB-468 (converted)
Summary of the method: as §1

SKOV-3 (ovarian cancer) = experiment: as above; conditions: Homo sapiens, SK-OV-3, 96 h; 4 d incubation; read-out: pIC50 SKOV-3 (converted)
Summary of the method: as §1

Calu-3 (lung cancer) = experiment: as above; conditions: Homo sapiens, Calu-3, 96 h; 4 d incubation; read-out: pIC50 Calu-3 (converted)
Summary of the method: as §1

[2] = system: FRα-negative MDA-MB-468 cells co-cultured with FRα-positive JEG-3; experiment: Bystander activity of ADCs (mono-culture vs co-culture, flow cytometry); conditions: 4 days; for bystander activity / Average MDA-MB-468 Viability (%) Mono-culture / % Bystander Activity: 2 nM ADC; for bystander activity: viability of MDA-MB-468 in co-culture vs mono-culture; for Average MDA-MB-468 Viability (%) Co-culture: MDA-MB-468 co-cultured with JEG-3, 2 nM ADC; for Average MDA-MB-468 Viability (%) Co-culture / Average MDA-MB-468 Viability (%) Mono-culture: relative to untreated blank; for Average MDA-MB-468 Viability (%) Mono-culture: MDA-MB-468 mono-culture; for % Bystander Activity: mono-culture viability compared with co-culture viability
Method: The ability of the humanized variant v30384 conjugated to various drug-linkers to exert a bystander killing effect on cancer cells was assessed according to the method described below. Bystander killing most commonly occurs after target-specific uptake of an ADC into an antigen-positive cell. Trafficking and degradation of the ADC results in release of active catabolite free drug, which then crosses the cell membrane of nearby cells to elicit cell death.
FRα-positive JEG-3 and FRα-negative MDA-MB-468 cells were seeded either as mono-cultures or co-cultures in a 48-well plate at 20,000 cells and 10,000 cells, respectively, in 100 μL assay media (Minimum Essential Media supplemented with 10% Fetal Bovine Serum (both from Thermo Fisher Scientific, Waltham, MA)). ADCs were diluted to 4 nM in assay media and 100 μL was added to the cell-containing plates (2 nM final ADC concentration). Cells were incubated with ADCs for 4 days under standard culturing conditions (37° C./5% C02). Following incubation, cells were dissociated, washed, and stained using a viability dye, YO—PRO®-1 (ThermoFisher Scientific, Waltham, MA), and an anti-FRα antibody, mirvetuximab (v17716), conjugated to Alexa Fluor®647, for 20 minutes at 4° C. After incubation, cells were washed in FACS buffer (phosphate buffered saline pH 7.4 (ThermoFisher Scientific, Waltham, MA) supplemented with 2% FBS), resuspended in 70 μL FACS buffer per well, and 35 μL per well were analyzed on a BD LSRFortessa™ Cell Analyzer (BD Biosciences, Franklin Lake, NJ). Dead cells were excluded by gating on YO—PRO®-1 staining. The number of JEG-3 and MDA-MB-468 cells were determined by the number of events in the Alexa Fluor®647 positive (FRα-positive) and Alexa Fluor®647 negative (FRα-negative) gates, respectively. Percent viability was calculated as the number of cells in treatment condition divided by the number of cells in the no-treatment condition.

Compound: CC[C@@]1(O)C(=O)OCc2c1cc1n(c2=O)Cc2c-1nc1cc(F)c(N)cc1c2CN [Compound 145, (S)-9-amino-11-(aminomethyl)-4-ethyl-8-fluoro-4-hydroxy-1,12-dihydro-14H-pyrano[3′,4′:6,7]indolizino[1,2-b]quinoline-3,14(4H)-dione]
- IC50 (SK-BR-3 (breast cancer)): 0.355 nM
- IC50 (ZR-75-1 (breast cancer)): 0.38 nM
- IC50 [1]: 0.269 nM
- IC50 (SKOV-3 (ovarian cancer)): 0.933 nM
- IC50 (Calu-3 (lung cancer)): 0.269 nM

Compound: CC[C@@]1(O)C(=O)OCc2c1cc1n(c2=O)Cc2c-1nc1cc(F)c(N)cc1c2CNS(C)(=O)=O [Compound 146, (S)—N-((9-amino-4-ethyl-8-fluoro-4-hydroxy-3,14-dioxo-3,4,12,14-tetrahydro-1H-pyrano[3′,4′:6,7]indolizino[1,2-b]quinolin-11-yl)methyl)methanesulfonamide]
- IC50 (SK-BR-3 (breast cancer)): 1.74 nM
- IC50 (ZR-75-1 (breast cancer)): 6.03 nM
- IC50 [1]: 4.37 nM
- IC50 (SKOV-3 (ovarian cancer)): 11.2 nM
- IC50 (Calu-3 (lung cancer)): 4.37 nM

Compound: CC[C@@]1(O)C(=O)OCc2c1cc1n(c2=O)Cc2c-1nc1cc(F)c(N)cc1c2CN1CCN(C)CC1 [Compound 149, (S)-9-amino-4-ethyl-8-fluoro-4-hydroxy-11-((4-methylpiperazin-1-yl)methyl)-1,12-dihydro-14H-pyrano[3′,4′:6,7]indolizino[1,2-b]quinoline-3,14(4H)-dione]
- IC50 (SK-BR-3 (breast cancer)): 3.16 nM
- IC50 (ZR-75-1 (breast cancer)): 1.82 nM
- IC50 [1]: 6.31 nM
- IC50 (SKOV-3 (ovarian cancer)): 10 nM
- IC50 (Calu-3 (lung cancer)): 6.31 nM

Compound: CC[C@@]1(O)C(=O)OCc2c1cc1n(c2=O)Cc2c-1nc1cc(F)c(N)cc1c2CNC(=O)NCCO [Compound 151, (S)-1-((9-amino-4-ethyl-8-fluoro-4-hydroxy-3,14-dioxo-3,4,12,14-tetrahydro-1H-pyrano[3′,4′:6,7]indolizino[1,2-b]quinolin-11-yl)methyl)-3-(2-hydroxyethyl)urea]
- IC50 (SK-BR-3 (breast cancer)): 2.69 nM
- IC50 (ZR-75-1 (breast cancer)): 5.89 nM
- IC50 [1]: 11.5 nM
- IC50 (SKOV-3 (ovarian cancer)): 45.7 nM
- IC50 (Calu-3 (lung cancer)): 11.5 nM

Compound: palivizumab MC-GGFG-AM-DXd1: "ADCs comprising palivizumab (v22277) conjugated to MC-GGFG-AM-DXd1 and MCvcPABC-MMAE were included as negative controls"
- bystander activity [2]: negative bystander activity

Compound: palivizumab MCvcPABC-MMAE: "ADCs comprising palivizumab (v22277) conjugated to MC-GGFG-AM-DXd1 and MCvcPABC-MMAE were included as negative controls"
- bystander activity [2]: negative bystander activity

Compound: v22277-MC-GGFG-AM-DXd1: "negative controls palivizumab (anti-RSV) (v22277) conjugated to MC-GGFG-AM-DXd1 (DAR 8) and MCvcPABC-MMAE (DAR 4)"
- Average MDA-MB-468 Viability (%) Co-culture [2]: 101.8%
- Average MDA-MB-468 Viability (%) Mono-culture [2]: 91.6%
- % Bystander Activity [2]: −10.2%

Compound: v22277-MCvcPABC-MMAE: "negative controls palivizumab (anti-RSV) (v22277) conjugated to MC-GGFG-AM-DXd1 (DAR 8) and MCvcPABC-MMAE (DAR 4)"
- Average MDA-MB-468 Viability (%) Co-culture [2]: 94.2%
- Average MDA-MB-468 Viability (%) Mono-culture [2]: 81.3%
- % Bystander Activity [2]: −12.9%
